Results reported in patent US20240183842A1, “Supercharged Biovesicles and Methods of Use Thereof” (The General Hospital Corporation, priority 2021, published 2024).
Each block holds one molecule with its values, some of them ahead of it.

Assays:
HEK293T cells = assay: Inhibitor pretreatment before Bodipy TR-scEV uptake, flow cytometry; assay type: cell-based, human; conditions: for Bodipy TR fluorescence in recipient cells (scEV uptake) compared to sham / +scProtein fluorescence levels compared to sham: 1 h pretreatment, 24 h Bodipy TR-scEVs, CHL 10 μM, Bort 5 μM; for Bodipy TR fluorescence in recipient cells (scEV uptake) compared to sham: ConA 200 nM, Baf 200 nM
Protocol: For inhibitor treatment before scEV uptake, HEK293T cells (50,000 cells per well) were seeded in 24-well culture plates (Falcon) for 24 h in DMEM with serum. The cells were then pre-incubated with the inhibitors in Optimem without serum. […] The labelled EVs (10^7-10^8 particles) were added each well for 24 h in the presence of the indicated inhibitors. Following incubation, cells were trypsinized and analyzed based on scProtein and Bodipy TR fluorescence on a Beckman SORP 5 Laser BD Fortessa Flow Cytometer in the MGH core facility.
FLOW CYTOMETRY. Flow cytometric analysis was performed on the Beckman SORP 5 Laser BD Fortessa Flow Cytometer in the MGH core facility. Forward and side scatter signals were used to distinguish live cells from polystyrene beads. Proper gating was performed to identify positive fluorescent signals compared to non-stained or single stained controls.

[1] = biological target: Flag-Tag affinity beads (antibody based magnetic beads); assay: elution of bead-bound NoMi-EVs with free Flag peptide, nanoluciferase bioluminescence read-out

Molecule: CO/C1=C\C(C)=C\[C@@H](C)[C@@H](O)[C@@H](C)C/C(C)=C/C=C/[C@H](OC)[C@@H]([C@@H](C)[C@@H](O)[C@H](C)[C@@]2(O)C[C@@H](O)[C@H](C)[C@@H](C(C)C)O2)OC1=O [Bafilomycin A1]
Bodipy TR fluorescence in recipient cells (scEV uptake) compared to sham (HEK293T cells): No significant decrease

Molecule: CC(C)C[C@H](NC(=O)[C@H](Cc1ccccc1)NC(=O)c1cnccn1)B(O)O [Bortezomib]
+scProtein fluorescence levels compared to sham (HEK293T cells): increase
Bodipy TR fluorescence in recipient cells (scEV uptake) compared to sham (HEK293T cells): increased scEV uptake
+scProtein fluorescence in combination with Baf and ConA (HEK293T cells; Bort combined with Baf or ConA): increased

Molecule: C/C=C/[C@H]1O[C@@](O)([C@@H](C)[C@H](O)[C@H](C)[C@H]2OC(=O)/C(OC)=C/C(C)=C/[C@@H](C)[C@@H](O)[C@@H](CC)[C@@H](O)[C@H](C)C/C(C)=C/C=C/[C@@H]2OC)C[C@@H](O[C@H]2C[C@@H](O)[C@H](OC(N)=O)[C@@H](C)O2)[C@@H]1C [concanamycin A]
Bodipy TR fluorescence in recipient cells (scEV uptake) compared to sham (HEK293T cells): No significant decrease

Molecule: CCN(CC)CCCC(C)Nc1ccnc2cc(Cl)ccc12 (centres unmarked) [Chloroquine]
+scProtein fluorescence levels compared to sham (HEK293T cells): increase
Bodipy TR fluorescence in recipient cells (scEV uptake) compared to sham (HEK293T cells): significantly increase

percent of EVs recovered from the beads by peptide elution [1]: 75%
Molecule: DYDKDDDK [Flag-Tag peptide]
